Tests used:
[1] = system: HT29 cells; test: Induction of apoptosis in HT29 cells carrying pVT324; format: cell-based, human; settings: after 48 hours of treatment
Protocol: Cells that are positive for PI uptake may either be necrotic, or be in the late stages of apoptosis. In order to address specifically the question of whether DNA recovered from cells undergoing apoptosis can serve as a good template for PCR, the following experiment was performed. HT29 cells containing a retroviral construct that constitutively expresses GFP (pVT324) were treated with sulindac sulfide to induce apoptosis. […] Apoptotic cells were counted into PCR tubes and PCR was carried out using primers specific for the amplification of the retroviral GFP construct. Live cells from an untreated culture were used as PCR controls. There was no apparent difference in amplification of the GFP product from apoptotic cells when compared to live cells (FIG. 11). Thus DNA recovered from cells undergoing either necrotic or apoptotic cell death can serve as an effective template for PCR amplification and construction of sublibraries.

[2] = system: HuVEC 9F0293 cells; test: Time course of detachment and PI staining of HuVEC 9F0293; format: cell-based, Human; settings: puromycin 2 ug/ml
Protocol: To determine the time course in which dead and/or dying HuVECs detach from the solid support in response to a cytotoxic agent, 9F0293 cells were plated and subsequently treated with puromycin (2 ug/ml). Both floater and adherent cell populations were then collected at varying times (t=4, 7, 9, 16, 20, and 24 hours) and analyzed to determine (a) the percent PI^+ cells in the floater population and (b) the fraction of cells which became floaters. […] The fraction of floaters that stained with PI (PI^+ population) increased with time.

[3] = system: ECR293 cells containing pBIGFII and ecdysone receptor (pVgRXR); test: Ecdysone-inducible pBIGFII vector fluorescence in ECR293 cells; format: cell-based; settings: 5 μM ponesterone A
Text: As an alternative to the constitutive pCLMFG vector, an inducible construct that can be regulated by ecdysone was constructed as follows. The PmlI/XhoI fragment from pVT324 was inserted into the MCS of the PIND vector (Invitrogen). This product was then digested with BglII, blunt-ended and inserted into a pBabe-K-ras vector (pVT313-based) that had been digested with BamHI/XhoI and blunted (Klenow Fragment). The resulting vector was designated pBabe-Forward-1. The XbaI fragment of pVT324 was then inserted into the compatible site of pBabe-Forward-1. The resulting vector was designated pBIGFII. Vector pBIGFII was subsequently transfected into cells (ECR293, Invitrogen) that contain an endogenous copy of the ecdysone receptor (pVgRXR).

[4] = system: T47D cells; test: Camptothecin kill curve in T47D cells; format: cell-based
Protocol: Approximately 250,000 cells were seeded into each well of a six well plate. Cells were then grown in media containing camptothecin of varying concentrations (0-10 uM). After 5 days, the number of cells remaining in each of the camptothecin-treated wells was compared with untreated controls. From these experiments, it was determined that camptothecin concentrations ranging from 1-4 nM had no effect on T47D cell number over the course of the 5 days of treatment. […] In order to determine whether this level of treatment is concomitantly increasing the number of floaters in the population, several flasks are seeded with T47D cells and then treated with 1-4 nM concentrations of camptothecin. After a period of three to five days, the media is collected and the number of floater cells are counted and compared to the total number of cells in the flask (floaters+adherents).

[5] = system: HS294T cells; test: Nuclear condensation / ethidium homodimer and Syto16 staining, HS294T; format: cell-based
Protocol: (§1) Two cell lines, WM35 and HS294T, were plated out (50,000 cells per well, 24 well plate) and allowed to adhere. After 24 hours, the cells were treated for 4 hours with varying concentrations (5-80 μM) of Cisplatin (cis-platinum (II) diammine dichloride), a well-known chemotherapeutic agent that induces apoptosis. […] Adherent cell populations were then lifted from the solid support by trypsinization, centrifuged (400× g), and resuspended in PBS (0.125 ml). To observe the nuclear morphology and percent cell death in the WM35 and HS294T cell lines, cells from both floater and adherent populations were stained concurrently with Syto16 and ethidium homodimer (125 ul of cell suspension+2.5 ul 62.5uM Sytol6+[…] 10 ug/ml ethidium homodimer, 10 minutes at 37° C.). Ethidium homodimer is a membrane impermeant compound that fluoresces in the 617 nm range when it is intercalated with chromosomal DNA. Thus, in a mixed cell population containing both living and dead/dying cells, only those cells whose membranes have been compromised will stain with ethidium homodimer. In contrast, Syto 16 (Molecular Probes) is a membrane permeant dye that fluoresces in the 518 nm range when associated with chromosomal DNA. Together, these two dyes can be used to observe and distinguish the nuclear morphology in a population containing both living and dead/dying cells.

[6] = system: WM35 cells; test: Nuclear condensation / ethidium homodimer and Syto16 staining, WM35; format: cell-based
Protocol: as §1

[7] = system: WM35 (melanoma) cells; test: Caspase-3 fluorescent substrate (Rhodamine 123-YVAD) and PI staining of WM35 floaters; format: cell-based; settings: Cisplatin 15 μg/ml, floaters collected 18-24 hours after induction
Protocol: WM35 cells were passed one day prior to induction of apoptosis and incubated for 24 hrs to allow the cells to attach to the substrate. The media was subsequently removed, the remaining adherent cells washed 1× with PBS, and subsequently exposed to Cisplatin (15 μg/ml) in fresh media. Eighteen to twenty-four hours after the induction of apoptosis, the floater cell population was collected, pelleted by centrifugation (400× g), and resuspended at 3×10^6 cells/ml in PBS. Samples were then split into four groups: (I) uninduced minus Rhodamine 123-YVAD (substrate), (2) uninduced plus substrate, (3) induced minus substrate, and (4) induced plus substrate. For samples exposed to Rhodamine 123-YVAD substrate, 50 ul of a pre-warmed (37° C.) cell suspension was combined with 25 ul of a stock substrate solution (Celiprobe). Samples were incubated for 60 minutes at 37° C. and then placed on ice prior to FACS analysis. In addition to caspase-3 staining, a replicate of each sample was stained with propidium iodide to determine the percentage of cells within the population whose membranes had been compromised and the overlap between PI and caspase-3 staining. […] Emission spectra were read at 515-535 nm wavelength using the FLI (PMT2) 525 nm blue filter.

[8] = system: HMEC 96A cells; test: Floater assay with propidium iodide viability, HMEC 96A; format: cell-based, human; settings: for Propidium Iodide Staining / Percent Floaters: HMEC 96A
Protocol: (§2) A floater assay involving primary human mammary cells (HMECs), immortalized and transformed with a minimum number of genetic elements, was performed as follows. Primary pooled HMECs (Biowhittaker/Clonetics) were immortalized and transformed with two methods: 1) Serial introduction and expression of retroviral constructs encoding SV-40 Lg T Ag, human telomerase catalytic subunit hTERT, and activated V12H-ras (method of Hahn, et al, Nature 400: 464-468, 1999) and 2) serial introduction and expression of constructs encoding HPV-16 E6/E7, hTERT and V12H-ras. The lines are designated 96C and 96A, respectively. The retroviral constructs BABE/neomycin/SV-40 Lg T Ag BABE/LNCX/puromycin/hTERT, LXSN/hygromycin/V-12H-Ras and LXSN/neomycin/HPV-16 E6/E7 were utilized.
(§3) To determine background floater rates, cells were plated to 20% confluency in three 100 mm dishes (100000 cells/dish) and the number of floaters as a percentage of total cells (adherent+floaters) and the viability of floaters ascertained at two, three and four days post-platin . Viability was assessed by measuring propidium iodide uptake. In addition to untreated controls, a transduction control vector pVT 340 (pCLMFG/GFP) and a positive control BID/MFG vector, a pro-apoptotic protein previously identified in a colorectal carcinoma HT29 negative selection, were utilized. Cells were transduced with 30% (v/v) viral supernatants at 95% and 45% rates, respectively.

[9] = system: HMEC 96C cells; test: Floater assay with propidium iodide viability, HMEC 96C; format: cell-based, human; settings: for Propidium Iodide Staining / Percent Floaters: HMEC 96C
Protocol: as §2, §3

## CSc1ccc(/C=C2/C(C)=C(CC(=O)O)c3cc(F)ccc32)cc1 [sulindac sulfide]
[1]
  cell detachment and apoptotic morphology: the majority of the cells had detached from the dish and showed typical apoptotic morphology

## COc1ccc(C[C@H](N)C(=O)N[C@H]2[C@@H](O)[C@H](n3cnc4c(N(C)C)ncnc43)O[C@@H]2CO)cc1 [puromycin]
[2]
  time course of detachment: the majority of HuVECs detached by the 16-hour time point
[2]; by 20 hours
  floater cells in the PI+ gate: nearly all
[2]; within 24 hours
  cells that became floaters: 90-99%
[2]; 4, 7, and 9 hours
  PI− versus PI+ floater cells: near equal numbers

## CC(C)CC[C@@H](O)[C@](C)(O)[C@H]1CC[C@@]2(O)C3=CC(=O)[C@@H]4C[C@@H](O)[C@@H](O)C[C@]4(C)[C@H]3CC[C@]12C [ponesterone A]
[3]
  increase of fluorescence level versus absence of inducer: increases by approximately thirty fold

## CC[C@@]1(O)C(=O)OCc2c1cc1n(c2=O)Cc2cc3ccccc3nc2-1 [camptothecin]
[4]; 10 nM camptothecin, 5 days
  cell number relative to untreated control: roughly one third that found in the untreated control
[4]; 5 days
  concentration tolerated without adverse effect on cell viability or division: up to 4 nM
  concentrations at which virtually no cells remained adhered to the plate: greater than 50 nM
  concentrations resulting in a decrease in cell number relative to untreated control: greater than 4 nM
[4]; 5 days of treatment
  concentrations with no effect on T47D cell number: 1 to 4 nM

## N.N.[Cl-].[Cl-].[Pt+2] [Cisplatin, cis-platinum (II) diammine dichloride]
[5]; HS294T adherent cells, Cisplatin experiment
  ethidium homodimer staining of adherent cell population: < 10%
[5]; HS294T floaters stained with ethidium homodimer, Cisplatin treated
  cells showing condensed or fragmented nuclei: < 20%
[5]; HS294T floaters, Cisplatin 5-80 μM 4 hours, collected 18-24 hrs later
  floater cells stained with ethidium homodimer: greater than 50%
[6]; WM35 adherent cells, Cisplatin experiment
  ethidium homodimer staining of adherent cell population: < 10%
[6]; WM35 floaters, Cisplatin treated
  floater cells stained with ethidium homodimer: 45-50%
[6]; WM35 floaters, higher concentrations of Cisplatin
  condensed or fragmented nuclei: 40-50%
[7]
  caspase-3 positive cells among PI-minus floater cells: 94.6%

B1: BID: positive control BID/MFG vector, a pro-apoptotic protein previously identified in a colorectal carcinoma HT29 negative selection (protein, UniProt P55957 1-195, looked up)
BH3-interacting domain death …: MDCEVNNGSSLRDECITNLLVFGFLQSCSDNSFRRELDALGHELPVLAPQWEGYDELQTDGNRSSHSRLGRIEADSESQEDIIRNIARHLAQVGDSMDRSIPPGLVNGLALQLRNTSRSEEDRNRDLATALEQLLQAYPRDMEKEKTMLVLALLLAKKVASHTPSLLRDVFHTTVNFINQNLRTYVRSLARNGMD
modifications: expressed from MFG retroviral vector
notes: positive control BID/MFG vector, a pro-apoptotic protein previously identified in a colorectal carcinoma HT29 negative selection
[8]; Adherent, DAY 3
  Propidium Iodide Staining: 1.6%
[8]; Adherent, DAY 4
  Propidium Iodide Staining: 0.4%
[8]; DAY 2
  Percent Floaters: 54%
[8]; DAY 3
  Percent Floaters: 25%
[8]; DAY 4
  Percent Floaters: 8%
[8]; Floaters, DAY 3
  Propidium Iodide Staining: 72%
[8]; Floaters, DAY 4
  Propidium Iodide Staining: 45%
[8]; line 96A, days 3 and 4
  propidium iodide positive in adherents: 0.4-1.6%
  propidium iodide positive in floaters: 45-75%
[9]; Adherent, DAY 3
  Propidium Iodide Staining: 8.5%
[9]; Adherent, DAY 4
  Propidium Iodide Staining: 0.5%
[9]; DAY 2
  Percent Floaters: 46%
[9]; DAY 3
  Percent Floaters: 58%
[9]; DAY 4
  Percent Floaters: 7%
[9]; Floaters, DAY 3
  Propidium Iodide Staining: 81%
[9]; Floaters, DAY 4
  Propidium Iodide Staining: 70%
[9]; line 96C, days 3 and 4
  propidium iodide positive (adherents): 0.5-8.5%
  propidium iodide positive in floaters: 70-81%
